Results taken from paper PMC5740381 (Antimicrobial Agents and Chemotherapy, 2017).
Where two headings read alike, the source gives them in different places.

Legend:
Format in all cases: cell-based, Hepatitis C virus
HCV genotype 4a replicon = assay: Transient replicon assay with engineered substitutions
Experimental: (§1) Mutagenesis was performed using a Change-IT multiple-mutation site-directed mutagenesis kit (USB, Cleveland, OH) or by cloning a synthesized DNA fragment encoding the amino acid substitution(s). The genotype 1a and 1b replicon shuttle vectors used for the introduction of the substitutions of interest in the NS3, NS5A, or NS5B gene for transient-transfection assays have been described previously ([28], [33]). The replicon shuttle vectors used for the introduction of substitutions in NS3 genes from other genotypes were similar to the stable replicon cell line constructs described above, except for the absence of the neo gene. After mutagenesis, the plasmids were linearized and RNA was transcribed and then used to transfect Huh-7 cells. Inhibition of HCV replication by the HCV inhibitors was measured by luciferase assay, as described above. Replication efficiency was calculated as a percentage of wild-type replication, as described previously ([28]).

HCV genotype 3a replicon = assay: as above
Experimental: as §1

HCV genotype 2b replicon = assay: as above
Experimental: as §1

HCV genotype 6a replicon = assay: as above
Experimental: as §1

HCV genotype 4d replicon = assay: as above
Experimental: as §1

[1] = system: HCV subgenomic stable replicon GT3a; assay: microbe, parasite or virus in culture; details: read-out: Mean EC50 ± SD
Source text: (§2) Five of these nine cell lines have been described previously, including those transfected with genotypes 1a H77, 1b Con1, 3a, 4a, and 6a ([28]). […] The genotype 2b and 6e NS3 sequences were each synthetically constructed based on a consensus sequence derived from the alignment of 15 genotype 2b and 4 genotype 6e sequences, respectively. All replicon constructs were bicistronic subgenomic replicons similar to those described by Bartenschlager and coworkers, and the replicon cell lines were generated by introducing these constructs into cells of an Huh-7 human hepatoma-derived cell line ([50]). The inhibitory effect of the PIs on HCV replication in replicon cells was determined in Dulbecco's modified Eagle medium containing 5% fetal bovine serum with or without 40% human plasma (Bioreclamation, Westbury, NY). The EC50s were determined using nonlinear regression curve fitting as described previously ([33]).

[2] = system: HCV subgenomic stable replicon GT6a; assay: Stable HCV replicon luciferase assay in Huh-7 cells; details: read-out: Mean EC50 ± SD
Source text: (§3) . Five of these nine cell lines have been described previously, including those transfected with genotypes 1a H77, 1b Con1, 3a, 4a, and 6a ([28]). The other four cell lines were established by transfecting cells with a nonchimeric genotype 2a JFH-1 replicon (GenBank accession number AB047639), two genotype 2a JFH-1 chimeric replicons containing either a genotype 2b NS3 protease domain (N-terminal 251 amino acids) or a sequence encoding full-length NS3 through the first 39 amino acids of NS5B from genotype 5a (strain SA13), and one chimeric replicon with a genotype 1b Con1 backbone containing full-length NS3 and NS4A sequences from genotype 6e. The genotype 2b and 6e NS3 sequences were each synthetically constructed based on a consensus sequence derived from the alignment of 15 genotype 2b and 4 genotype 6e sequences, respectively. All replicon constructs were bicistronic subgenomic replicons similar to those described by Bartenschlager and coworkers, and the replicon cell lines were generated by introducing these constructs into cells of an Huh-7 human hepatoma-derived cell line ([50]). The inhibitory effect of the PIs on HCV replication in replicon cells was determined in Dulbecco's modified Eagle medium containing 5% fetal bovine serum with or without 40% human plasma (Bioreclamation, Westbury, NY). The EC50s were determined using nonlinear regression curve fitting as described previously ([33]).

[3] = system: HCV subgenomic stable replicon GT4a; assay: as above; details: read-out: Mean EC50 ± SD
Source text: as §3

HCV genotype 1b replicon = assay: Transient replicon assay with engineered substitutions; details: read-out: Mean EC50 ± SD
Experimental: as §1

HCV genotype 1a replicon = assay: as above; details: read-out: Mean EC50 ± SD
Experimental: as §1

HCV genotype 5a replicon = assay: as above; details: 5a wild type, transient transfection; read-out: Mean EC50 ± SD
Experimental: as §1

HCV genotype 2a replicon = assay: as above; details: read-out: Mean EC50 ± SD
Experimental: as §1

[4] = system: HCV subgenomic stable replicon GT6e; assay: microbe, parasite or virus in culture; details: 0% human plasma, read-out: Mean EC50 ± SD
Source text: as §2

[5] = Hepatitis C virus, Huh-7, 0% human plasma

CC(C)(C)[C@@H]1NC(=O)O[C@@H]2CCC[C@H]2OC/C=C/C(F)(F)c2nc3ccccc3nc2O[C@@H]2C[C@@H](C(=O)N[C@]3(C(=O)NS(=O)(=O)C4(C)CC4)C[C@H]3C(F)F)N(C2)C1=O [Glecaprevir, (3aR,7S,10S,12R,21E,24aR)-7-tert-butyl-N-[(1R,2R)-2-(difluoromethyl)-1-{[(1-methylcyclopropyl)sulfonyl]carbamoyl}cyclopropyl]-20,20-difluoro-5,8-dioxo-2,3,3a,5,6,7,8,11,12,20,23,24a-dodecahydro-1H,10H-9,12-methanocyclopenta[18,19][1,10,17,3,6]trioxadiazacyclononadecino[11,12-b]quinoxaline-10-carboxamide]
EC50 (HCV genotype 4a replicon; Hepatitis C virus, read-out: Mean EC50 ± SD, 4a NS3 A156T): 962 ± 374 nM
EC50 (HCV genotype 4a replicon; Hepatitis C virus, read-out: Mean EC50 ± SD, 4a NS3 A156V): 2080 nM
EC50 (HCV genotype 4a replicon; Hepatitis C virus, read-out: Mean EC50 ± SD, 4a NS3 D168H): 15 ± 6.1 nM
EC50 (HCV genotype 4a replicon; Hepatitis C virus, read-out: Mean EC50 ± SD, 4a NS3 D168V): 6.5 ± 3 nM
EC50 (HCV genotype 4a replicon; Hepatitis C virus, read-out: Mean EC50 ± SD, 4a NS3 R155C): 1.7 ± 0.47 nM
EC50 (HCV genotype 4a replicon; Hepatitis C virus, read-out: Mean EC50 ± SD, 4a wild type, transient transfection): 0.67 nM
EC50 (HCV genotype 3a replicon; Hepatitis C virus, read-out: Mean EC50 ± SD, 3a NS3 A156G): 909 ± 349 nM
EC50 (HCV genotype 3a replicon; Hepatitis C virus, read-out: Mean EC50 ± SD, 3a NS3 Q168R): 30 ± 10 nM
EC50 (HCV genotype 3a replicon; Hepatitis C virus, read-out: Mean EC50 ± SD, 3a wild type, transient transfection): 0.55 nM
EC50 (HCV genotype 2b replicon; Hepatitis C virus, read-out: Mean EC50 ± SD, 2b NS3 A156T): 460 ± 172 nM
EC50 (HCV genotype 2b replicon; Hepatitis C virus, read-out: Mean EC50 ± SD, 2b NS3 A156V): 4510 nM
EC50 (HCV genotype 2b replicon; Hepatitis C virus, read-out: Mean EC50 ± SD, 2b NS3 D168A): 3.9 ± 1 nM
EC50 (HCV genotype 2b replicon; Hepatitis C virus, read-out: Mean EC50 ± SD, 2b NS3 D168E): 6.6 ± 1.8 nM
EC50 (HCV genotype 2b replicon; Hepatitis C virus, read-out: Mean EC50 ± SD, 2b NS3 D168V): 9.1 ± 1.2 nM
EC50 (HCV genotype 2b replicon; Hepatitis C virus, read-out: Mean EC50 ± SD, 2b wild type, transient transfection): 3.1 nM
EC50 (HCV genotype 6a replicon; Hepatitis C virus, read-out: Mean EC50 ± SD, 6a NS3 D168A): 12 ± 5.8 nM
EC50 (HCV genotype 6a replicon; Hepatitis C virus, read-out: Mean EC50 ± SD, 6a NS3 D168H): 22 ± 5.7 nM
EC50 (HCV genotype 6a replicon; Hepatitis C virus, read-out: Mean EC50 ± SD, 6a NS3 D168V): 5.8 ± 2.2 nM
EC50 (HCV genotype 6a replicon; Hepatitis C virus, read-out: Mean EC50 ± SD, 6a wild type, transient transfection): 0.15 nM
EC50 (HCV genotype 4d replicon; Hepatitis C virus, 96 h, read-out: Mean EC50 ± SD, 4d wild type, transient transfection): 0.15 ± 0.04 nM
EC50 [1, 5]: 1.9 ± 0.62 nM
EC50 [2, 5]: 0.86 ± 0.11 nM
EC50 [3, 5]: 2.8 ± 0.41 nM

C=C[C@@H]1C[C@]1(NC(=O)[C@@H]1C[C@@H]2CN1C(=O)[C@H](C(C)(C)C)NC(=O)O[C@@H]1C[C@H]1CCCCCc1nc3ccc(OC)cc3nc1O2)C(=O)NS(=O)(=O)C1CC1 [Grazoprevir]
EC50 (HCV genotype 4a replicon; 4a NS3 A156T, read-out: Mean EC50 ± SD): 296 ± 22 nM
EC50 (HCV genotype 4a replicon; 4a NS3 A156V, read-out: Mean EC50 ± SD): 169 ± 27 nM
EC50 (HCV genotype 4a replicon; 4a NS3 D168H, read-out: Mean EC50 ± SD): 25 ± 6.3 nM
EC50 (HCV genotype 4a replicon; 4a NS3 D168V, read-out: Mean EC50 ± SD): 13 ± 1.1 nM
EC50 (HCV genotype 4a replicon; 4a NS3 R155C, read-out: Mean EC50 ± SD): 2 ± 0.27 nM
EC50 (HCV genotype 4a replicon; 4a wild type, transient transfection, read-out: Mean EC50 ± SD): 0.28 ± 0.04 nM
EC50 (HCV genotype 3a replicon; 3a NS3 A156G, read-out: Mean EC50 ± SD): 614 ± 148 nM
EC50 (HCV genotype 3a replicon; 3a NS3 Q168R, read-out: Mean EC50 ± SD): 165 ± 46 nM
EC50 (HCV genotype 3a replicon; 3a wild type, transient transfection, read-out: Mean EC50 ± SD): 47 ± 14 nM
EC50 (HCV genotype 1b replicon; 1b NS3 A156T): 39 ± 4.3 nM
EC50 (HCV genotype 1b replicon; 1b NS3 A156V): 68 ± 8.2 nM
EC50 (HCV genotype 1b replicon; 1b NS3 D168A): 8.5 ± 0.37 nM
EC50 (HCV genotype 1b replicon; 1b NS3 D168E): 0.78 ± 0.05 nM
EC50 (HCV genotype 1b replicon; 1b NS3 D168V): 4.1 ± 0.11 nM
EC50 (HCV genotype 1b replicon; 1b wild type, transient transfection): 0.19 ± 0.05 nM
EC50 (HCV genotype 2b replicon; 2b NS3 A156T, read-out: Mean EC50 ± SD): 1560 nM
EC50 (HCV genotype 2b replicon; 2b NS3 A156V, read-out: Mean EC50 ± SD): 2890 nM
EC50 (HCV genotype 2b replicon; 2b NS3 D168A, read-out: Mean EC50 ± SD): 347 ± 113 nM
EC50 (HCV genotype 2b replicon; 2b NS3 D168E, read-out: Mean EC50 ± SD): 35 ± 6 nM
EC50 (HCV genotype 2b replicon; 2b NS3 D168V, read-out: Mean EC50 ± SD): 88 ± 19 nM
EC50 (HCV genotype 2b replicon; 2b wild type, transient transfection, read-out: Mean EC50 ± SD): 6.1 ± 1.3 nM
EC50 (HCV genotype 6a replicon; 6a NS3 D168A, read-out: Mean EC50 ± SD): 103 ± 34 nM
EC50 (HCV genotype 6a replicon; 6a NS3 D168H, read-out: Mean EC50 ± SD): 45 ± 4.1 nM
EC50 (HCV genotype 6a replicon; 6a NS3 D168V, read-out: Mean EC50 ± SD): 24 ± 1.2 nM
EC50 (HCV genotype 6a replicon; 6a wild type, transient transfection, read-out: Mean EC50 ± SD): 0.1 ± 0.02 nM
EC50 (HCV genotype 4d replicon; 4d NS3 D168V, read-out: Mean EC50 ± SD): 2.5 ± 0.08 nM
EC50 (HCV genotype 4d replicon; 4d wild type, transient transfection, read-out: Mean EC50 ± SD): 0.18 ± 0.01 nM
EC50 (HCV genotype 1a replicon; 1a NS3 A156T): 92 ± 6 nM
EC50 (HCV genotype 1a replicon; 1a NS3 D168E): 4.6 ± 0.66 nM
EC50 (HCV genotype 1a replicon; 1a NS3 D168V): 30 ± 13 nM
EC50 (HCV genotype 1a replicon; 1a NS3 F43L): 0.19 ± 0.05 nM
EC50 (HCV genotype 1a replicon; 1a NS3 Q80K): 0.25 ± 0.09 nM
EC50 (HCV genotype 1a replicon; 1a NS3 R155K): 0.59 ± 0.19 nM
EC50 (HCV genotype 1a replicon; 1a NS3 V36M): 0.27 ± 0.06 nM
EC50 (HCV genotype 1a replicon; 1a NS3 V55I): 0.1 ± 0.02 nM
EC50 (HCV genotype 1a replicon; 1a NS3 Y56H): 2.2 ± 0.73 nM
EC50 (HCV genotype 1a replicon; 1a wild type, transient transfection): 0.14 ± 0.06 nM
EC50 (HCV genotype 5a replicon): 0.06 ± 0.02 nM
EC50 (HCV genotype 2a replicon; 2a NS3 A156T): 1150 nM
EC50 (HCV genotype 2a replicon; 2a NS3 A156V): 1960 nM
EC50 (HCV genotype 2a replicon; 2a NS3 D168A): 139 ± 9.4 nM
EC50 (HCV genotype 2a replicon; 2a NS3 D168E): 62 ± 10 nM
EC50 (HCV genotype 2a replicon; 2a NS3 D168V): 24 ± 0.94 nM
EC50 (HCV genotype 2a replicon; 2a wild type, transient transfection): 10.5 ± 1.4 nM
EC50 ([1]; 0% human plasma): 83 ± 18 nM
EC50 [4]: 0.25 ± 0.01 nM
EC50 ([2]; 0% human plasma): 0.89 ± 0.32 nM
EC50 ([3]; 0% human plasma): 1.2 ± 0.31 nM
